Assay results as given in paper PMC11608315, “Subtilase SBT5.2 inactivates flagellin immunogenicity in the plant apoplast” (Nature Communications, 2024).
pIC50: −log10 of the molar value. No end group written: not given here.

Legend:
[1] = test system: SBT5.2 subtilases in AF; assay: Residual immunogenicity (ROS assay) after incubation in AF of TRV::SBT5.2 or TRV::GFP plants; type: in vitro ADME, Nicotiana benthamiana; settings: 100 nM flg22, 0, 30, 60 min in AF; ROS read-out, n = 6; Fig. 4b
Procedure: (§1) Agrobacterium cultures were grown overnight and resuspended in an agroinfiltration buffer at OD600 = 0.5. Agrobacteria carrying binary plasmids for expressing RNA2 of TRV-carrying silencing fragments (Supplementary Table 1) were mixed 1:1 with Agrobacteria containing TRV1[38]. After incubation for 1 h at 21 °C, the mixed cultures were infiltrated into the leaves of 14-day-old N. benthamiana plants. The infiltrated plants were grown for another 4 to 5 weeks in a growth chamber until use.
(§2) N. benthamiana leaves were submerged in ice-cold water and vacuum infiltrated in a 50 ml syringe with a plunger. The surface of water-infiltrated leaves was dried with absorbing paper and leaves were carefully inserted into an empty 20 ml syringe, which was placed in a 50 ml tube. AFs were collected by centrifugation at 2000 × g at 4 °C for 10 min. AFs were immediately used or frozen using liquid nitrogen and stored at −20 °C until use.
ROS assays were performed as described previously. Briefly, after incubation in water overnight, one leaf disc (6 mm diameter) was added to 100 µl solution containing 25 ng/µl luminol, 25 ng/µl Horse Radish Peroxidase (HRP) and specified elicitor treatments. […] Chemiluminescence was measured immediately with the Infinite M200 plate reader (Tecan, Mannedorf, Switzerland) every minute for one hour. Standard errors were calculated at each time point and for each treatment.

[2] = test system: apoplastic proteases in apoplastic fluids (AF) of N. benthamiana; assay: Residual immunogenicity (ROS assay) after incubation of elicitor in AF of WT plants; type: in vitro ADME, Nicotiana benthamiana; settings: ROS read-out, n = 6
Procedure: as §2
(§3) ROS assays were performed as described previously. Briefly, after incubation in water overnight, one leaf disc (6 mm diameter) was added to 100 µl solution containing 25 ng/µl luminol, 25 ng/µl Horse Radish Peroxidase (HRP) and specified elicitor treatments. For assays with treated elicitors, elicitor peptides or purified flagellin were incubated in AFs from N. benthamiana leaves (wild-type, agroinfiltrated, VIGS-silenced or sbt5.2 mutants) or purified SBT5.2a-HIS for the specified time at 21 °C. After incubation, 25 ng/µl luminol and 25 ng/µl HRP were added to the AFs. Chemiluminescence was measured immediately with the Infinite M200 plate reader (Tecan, Mannedorf, Switzerland) every minute for one hour. Standard errors were calculated at each time point and for each treatment.

[3] = test system: AF of sbt5.2 mutant N. benthamiana; type: in vitro ADME, Nicotiana benthamiana; settings: 100 nM flg22, 30 min in AF; ROS read-out, n = 6; Fig. 5c
Procedure: as §2, §3

[4] = test system: purified SBT5.2a-His; assay: Residual immunogenicity (ROS assay) after incubation with purified SBT5.2a-His; type: biochemical, Nicotiana benthamiana; settings: 50 nM flg22, 10 μg/ml SBT5.2a-His, 40 min; ROS read-out, n = 6; Fig. 6b
Procedure: (§4) Four-week-old N. benthamiana leaves were infiltrated with a 1:1 mixture (final OD600 = 0.5 for each) of Agrobacterium tumefaciens GV3101 containing the silencing suppressor P19 and pPB097[22]. Apoplastic fluid containing SBT5.2a-His was extracted 6 days after infiltration as described above and purified as previously described[40],[41]. Briefly, SBT5.2a-His was purified by HisPur™ Ni-NTA resin and concentrated in 25 mM Tris-HCl pH = 6.8 using a 50 kDa MWCO Amicon Ultra-15 filter.
as §3

[5] = test system: subtilases in AF of N. benthamiana; assay: Residual immunogenicity (ROS assay) after incubation in AF of leaves transiently expressing Epi1 or empty vector; type: in vitro ADME, Nicotiana benthamiana; settings: 10 µg/ml monomeric flagellin or 100 nM flg22, 40 min in AF; ROS read-out, n = 6; Fig. 3b
Procedure: (§5) Agrobacterium tumefaciens GV3101 (pMP90) was used for agroinfiltration of N. benthamiana. Agrobacteria were grown overnight in Luria-Bertani (LB) medium with 10 μg/ml gentamycin and 50 μg/ml kanamycin at 28 °C. For transient expression of proteins in N. benthamiana, overnight cultures of Agrobacterium carrying binary vectors listed in Supplementary Table 1 were harvested by centrifugation. Bacterial cells were resuspended in agroinfiltration buffer (10 mM MgCl2, 10 mM MES pH 5.6, 150 μM acetosyringone) and mixed (1:1) with agrobacteria carrying the silencing inhibitor p19 at an OD600 of 0.5. After 1 h at 28 °C, cells were infiltrated into leaves of 4-week-old N. benthamiana. The infected plants were grown in a growth chamber until use.
as §2, with “AFs were immediately used or frozen using liquid nitrogen and stored at −20 °C until use.” left out
ROS assays were performed as described previously. […] Chemiluminescence was measured immediately with the Infinite M200 plate reader (Tecan, Mannedorf, Switzerland) every minute for one hour. Standard errors were calculated at each time point and for each treatment.

[6] = Solubility of quenched peptide (observation on dissolving the powder); type: physicochemical; settings: noticed when dissolving the peptide powder; response to reviewers
[7] = test system: subtilases (SBTs), papain-like Cys proteases (PLCPs) and metalloproteases in AF; assay: QP processing in AF of leaves expressing protease inhibitors Epi1, SlCys8 or HsTIMP; type: biochemical, Nicotiana benthamiana; settings: AF from leaves transiently expressing Epi1 (HsTIMP for comparison); EV = 100%; n = 3; Fig. 3a
Procedure: as §5
The quenched peptides (QPs) from flagellin were commercially synthesised with a DABCYL N-terminal modification and a Glu-EDANS C-terminal modification (GenScript, Piscataway, New Jersey, United States) at a purity of 95% (Supplementary Table 2). They were resuspended in DMSO at a concentration of 1 mM. […] AFs or purified SBT5.2a were mixed with QPs at a final concentration of 10 µM in a volume of 100 µl, and fluorescence was measured immediately at 21 °C using an Infinite M200 plate reader (Tecan, Mannedorf, Switzerland) every minute over 5 min with an excitation wavelength of 335 nm and emission wavelength of 493 nm. […]

[8] = test system: AF of sbt5.2 mutant N. benthamiana; type: in vitro ADME, Nicotiana benthamiana; settings: 10 µM QP; n = 4; Fig. 5b
Procedure: (§6) The quenched peptides (QPs) from flagellin were commercially synthesised with a DABCYL N-terminal modification and a Glu-EDANS C-terminal modification (GenScript, Piscataway, New Jersey, United States) at a purity of 95% (Supplementary Table 2). They were resuspended in DMSO at a concentration of 1 mM. This stock solution was further diluted in water to a concentration of 200 µM. AFs or purified SBT5.2a were mixed with QPs at a final concentration of 10 µM in a volume of 100 µl, and fluorescence was measured immediately at 21 °C using an Infinite M200 plate reader (Tecan, Mannedorf, Switzerland) every minute over 5 min with an excitation wavelength of 335 nm and emission wavelength of 493 nm.
as §2

[9] = test system: leaf discs of WT or sbt5.2 mutant N. benthamiana; assay: ROS burst assay on sbt5.2 mutant versus WT leaf discs (timing, dose response); type: cell-based, Nicotiana benthamiana; settings: n = 12; Fig. 5e, 5f
Procedure: as §3

[10] = test system: FLS2; settings: microsomal fractions that presumably lack subtilases; read-out: IC50, competition with binding by radiolabeled flg22; cited from earlier work
Text: However, although flagellin can bind FLS2, it is unclear at this stage if it would also activate FLS2 signalling because that would require subsequent BAK1 binding to FLS2. The extension of flg22 at its C-terminus is likely to obstruct BAK1 binding, based on the structure of flg22 bound to the FLS2 and BAK1[34].

[11] = test system: purified SBT5.2a-His; assay: QP cleavage by purified SBT5.2a-His (fluorescence); type: biochemical, Nicotiana benthamiana; settings: 10 μl of 25 μg/ml SBT5.2a-His, 10 µM QP; n = 4; Fig. 6a
Procedure: as §6, §4

[12] = test system: SBT5.2, SBT1.9a, SBT1.7a, SBT1.7c in AF; assay: QP processing in AF of plants silenced for subtilases (VIGS); type: in vitro ADME, Nicotiana benthamiana; settings: 10 µM QP; TRV::GFP = 100%; n = 3 plants; Fig. 4a
Procedure: as §6, §1
N. benthamiana leaves were submerged in ice-cold water and vacuum infiltrated in a 50 ml syringe with a plunger. […]

Substance: TRLSSGLKINSAKDDAAGLQIA [flg22, reference compound]
- decline of immunogenicity in AF of TRV::SBT5.2 compared to TRV::GFP plants [1]: much slower
- immunogenicity after incubation in AF of WT plants ([2]; 100 nM flg22, 30 min in AF, Fig. 5c): quickly lost
- immunogenicity after incubation in AF of sbt5.2 plants [3]: retains immunogenicity significantly longer
- elicitor activity after incubation with purified SBT5.2a-His [4]: inactivated its elicitor activity
- immunogenic activity after incubation in AF from leaves expressing Epi1 [5]: immunogenic activity was detected

Substance: LQIA ↓ TKITS [QP4, custom-synthesised quenched peptide with flg22-flanking site LQIA ↓ TKITS, DABCYL and Glu-EDANS]
- solubility [6]: problematic
- QP processing in AF containing Epi1 [7]: near complete blockage
- QP processing in AF of sbt5.2 mutant plants versus WT [8]: strongly reduced but not significant

Substance: flagellin
- oxidative burst after incubation with AF ([2]; 10 µg/ml monomeric flagellin incubated with AF for 30 or 60 min, 21 °C, Fig. 1e): quickly disappears
- timing and amplitude of oxidative burst, WT versus sbt5.2 mutant leaf discs [9]: similar
- pIC50 [10]: 6.92
- immunogenic activity after incubation in AF from leaves expressing Epi1 [5]: immunogenic activity was detected

Substance: SAKDDAAG [QP3, custom-synthesised quenched peptide with cleavage site SAKD ↓ DAAG within flg22, DABCYL and Glu-EDANS]
- cleavage by purified SBT5.2a-His [11]: hardly cleaved
- QP processing in AF containing Epi1 [7]: suppressed more by Epi1 than by HsTIMP
- QP processing in AF of TRV::SBT1.9a and TRV::SBT1.7a plants [12]: also reduced
- QP processing in AF of TRV::SBT5.2 plants compared to TRV::GFP control [12]: not as strongly reduced
- QP processing in AF of sbt5.2 mutant plants versus WT [8]: only slightly reduced
